# Tested on: endometrium
# From the text: Efforts were made to recruit an equal number of women with high endometrial thickness (>7 mm) and low endometrial thickness (<7 mm). On the day of surgery, the subject underwent a vaginal ultrasound, to re-measure the endometrial thickness, and hysteroscopy, to visualize the uterine cavity and the endometrium.
# After surgery, the extracted uterus was immediately evaluated by the study pathologist for gross pathology and silver nitrate coverage of the endometrium and was later subjected to pathology (macroscopic analyses of the intra-uterine cavity and microscopic analyses of the multiple sections of the uteri) histopathological evaluations to define the extent of active material endometrium coverage and endometrial ablation.
smiles,measurement,setting,value
O=[N+]([O-])[O-].[Ag+] [silver nitrate],Staining of / spillage via the fallopian tubes,"30 minutes in uterus, extracted uterus",No staining of the fallopian tubes
same,Cervix findings,histology,"superficial silver nitrate staining, with no damage to the columnar epithelium and no pathological findings"
same,Cauterization effect,overall conclusion,elicited the expected cauterization effect

# Reference: patent US12161829B2 (OCON MEDICAL LTD., priority 2020, dated 2024)
